Columns and labels:
[1] = test system: preterm lamb model of BPD; experiment: Survival and growth in mechanically ventilated preterm lamb BPD model; format: in vivo
Experimental: For dose-optimization, preterm (PT) lambs were delivered at ˜128d (d; saccular stage of lung development; ˜85% gestation) after maternal antenatal steroids exposure. […] After delivery and surfactant administration, PT lambs were maintained on invasive mechanical ventilation (IMV) for 7d followed by 3d noninvasive respiratory support. For the early-stage study, outcomes were determined for PT lambs over DOL1-10. For the late-stage study, outcomes were determined for former preterm (FPT) lambs (vehicle, AVR-48 treated) that were weaned from respiratory support after 10d and were maintained in the lamb intensive care unit for a further 80d. Outcomes included functional, structural, molecular, and neurobehavioral assessments. Term reference lambs that were never ventilated were used as developmental references for the FPT lambs.
Study timeline. FIGS. 1A and 1B show the timeline for the two-endpoint study using two groups of PT lambs. The first endpoint used PT lambs managed by IMV for 7d, followed by extubation to noninvasive respiratory support (NRS) for up to 3d of life (DOL7-10). At that time, terminal tissues were collected. The second endpoint used the same management protocol, followed by weaning the lambs from respiratory support and having them live in the lamb intensive care unit as former PT (FPT) lambs for 2 months corrected postnatal age (3 months chronological age, DOL 90). The rationale for the 2-month corrected postnatal age for FPT lambs is when sheep are weaned from milk, equivalent to about 12-18 months for humans. Methods for the FPT lamb model have been reported.^14,17
PT lamb model and methods for all outcome measures. Surgical preparation and management of lamb groups. Delivery and clinical management methods for PT lambs (6-8) and FPT lambs (3, 4). Briefly, time-pregnant ewes that had single or twin fetuses at ˜128d (˜85%) gestation (term ˜150d gestation) were used (main FIGS. 1A and 1B). The fetuses were exposed to antenatal steroids (dexamethasone) at ˜48 h and ˜24 h before Cesarean-section (exit-procedure) delivery. […]

[2] = test system: TLR4 and pathway-related cytokines, apoptosis, proliferation and permeability markers in lung tissue homogenates; experiment: Immunoblot and RT-PCR of lamb lung tissue homogenates; format: in vivo
Experimental: For molecular analyses, the right caudal lobe was cut into 1 cm^3 pieces (˜1 g each), again using systematic, uniform, random sampling methods. The lung pieces were from peripheral tissue devoid of visceral pleura and central airways, vessels, and connective tissue. The pieces were snap-frozen in liquid nitrogen and stored at −80° C. Homogenates of frozen tissue pieces were used for quantitative real-time RT-PCR and immunoblot analyses. Expression of mRNA was normalized to GAPDH. For immunoblot analysis, cleaved caspase 3 was used (EnzoADI-AAP-113, Enzo Life Sciences, Inc., Farmingdale, NY), PCNA (ab2426, Abcam, Cambridge, MA), and VEGF-R2 (sc-393163, Santa Cruz Biotechnology, Dallas, TX) proteins. Positive controls for immunoblot were the respective native proteins. Protein abundance was normalized, using Memcode (P124585, Fisher Scientific, Pittsburgh, PA).

[3] = test system: preterm lamb model of BPD; experiment: Lung histopathology and quantitative histology of lamb lungs; format: in vivo; settings: for radial alveolar count (RAC) / distal airspace wall thickness / secondary septal volume density: vs vehicle
Experimental: Terminal tissue collection. The inventors followed the methods the developed for terminal tissue collection.^14,17,26-28 Briefly, at the end of the early-stage study (DOL10) or late-stage study (DOL90 for FPT lambs; DOL60 for term reference lambs), the lambs were given ketamine (10-20 mg/Kg, intramuscularly) followed by face mask inhalation anesthesia with 1.0-2.5% isoflurane with O2. Lambs were intubated and ventilated with a tidal volume of 5-7 mL/kg, and given heparin (1000 U, iv). The lambs were given Beuthanasia solution (0.25 mL/Kg, iv; Intervet Inc., Madison, NJ) followed by potassium chloride (10 mEq, iv; Hospira, Lake Forest, IL).
For morphological analyses, the entire left lung was insufflated with formalin and sampled by systematic, uniform, random methods for quantitative histology.^29 Morphometric and stereologic methods quantified radial alveolar count, secondary septal volume density, and thickness of distal airspace walls.^27 Alveolar capillary growth was quantified by a combination of immunohistochemistry to identify endothelial cells in lung tissue sections and quantitative histology.^27 For capillary surface density measurement, a recombinant anti-CD-34 antibody was used (ab81289, Abcam; Waltham, MA) for the capillary endothelial cell marker. Negative immunostain controls were omission of the primary antibody, omission of the secondary antibody, and substitution of the primary antibody with a species-matched, irrelevant antibody. Epithelium lining the air spaces was counterstained blue. The inventors used a computer-assisted true-color imaging system (Bioquant Life Science, Nashville, TN) to quantify the surface density of alveolar capillaries and the overlying epithelium.

TLR4 pathway = experiment: Western blot of TLR4 pathway proteins in hPBMC and CBMCs; format: cell-based, human; settings: 100 μM, alone and with LPS 50 ng/mL
Experimental: FIGS. 14A to 14D show Western Blot analysis for quantification of TLR4 pathway proteins and densitometry of (FIGS. 14A-FIG. 14C) using adult hPBMC and (FIG. 14D) CBMCs. After treatment with AVR-48 [100 μM], LPS [50 ng/mL], and in combination indicates AVR-48 activates TLR4 pathway via increasing phospho-MyD88 and phospho-TTRAP, with no activation via TRAM, and inhibiting the phosphorylation of the NF-kB pathway.
(§1) CBMCs were treated with either AVR-123 [100 μM], LPS [50 ng/mL] or AVR-123+LPS for 24 h. […] (FIG. 23G) AVR-123 decreases phosphorylated NFkB alone and when combined with LPS in CBMCs via western blot analysis. N=3, One-way ANOVA.

[4] = test system: cord blood mononuclear cells (CBMCs); experiment: Cytokine profile in LPS-challenged CBMCs; format: cell-based, human; settings: compound 100 μM + LPS 50 ng/mL vs LPS treated cells
Experimental: FIGS. 15A TO 15F show the AVR-48 cytokine profile in CBMCs. Cells treated with AVR-48 [100 μM], LPS [50 ng/mL] and AVR-48+LPS show a decrease (˜2-4-fold) in cytokine signal in (FIG. 15A) TNF-α, (FIG. 15B) IL-1β, (FIG. 15C) IL-10, (FIG. 15D) IL-12, (FIG. 15E) IL-6, and (FIG. 15F) IL-8, and indicates a reduced […] response as compared to LPS treated cells solo. N=3, One-way ANOVA was used for analysis.
as §1

mice = experiment: AVR-48 pretreatment of mice followed by LPS, immune cell profile; format: in vivo, mouse; settings: mice pretreated with AVR-48, in the presence of LPS
From the text: AVR-48 stimulated innate and adaptive immune response via (FIG. 25E) TNF-α increase and (FIG. 25F) CD3+, (FIG. 25G) CD4+, and (FIG. 25H) CD8+ T-cells, a necessary step in adaptive response and immune resolution. *p<0.05, **p<0.01, ***p<0.001; N=4, One-way ANOVA was used for analysis.

[5] = late-stage study, FPT lambs vs FPT vehicle

CC(=O)NC1C(Oc2ccc([N+](=O)[O-])cc2)OC(CO)C(O)C1O (stereo not shown) [AVR-48]
survival ([1]; early-stage study, PT lambs): ~100% | survival ([1]; late-stage study d10-d90, FPT lambs, 3.0 mg/kg iv every 12 h DOL1-7): 80% | body weight ([1]; late-stage study, FPT AVR-48 lambs vs FPT vehicle lambs): significantly increased | P53 in lung ([2]; 90-day study, vs FPT vehicle lamb lungs): higher | cleaved caspase-3 protein levels in lung ([2]; DOL10, PT lambs vs vehicle): significantly lower level | mRNA levels for p53, caspase-3, c-Myc, and TGF-β in lung ([2]; DOL10, PT lambs vs vehicle): No significant difference | relative mRNA levels of TLR4 and cytokines in lung ([2]; PT lambs vs control, FPT and term lambs): No differences were found | protein concentration of TLR4 and pathway-related cytokines in lung tissue ([2]; early-stage study): no differences were detected | VEGF-A protein level in lung ([2]; early-stage study, 10d, PT group vs vehicle): significant decrease | TLR4 protein concentration (relative protein level) in lung tissue ([2]; late-stage study (DOL90), FPT AVR-48 lambs): 0.007±0.004 | TLR4 protein concentration in lung tissue vs vehicle ([2]; late-stage study (DOL90), FPT lambs vs FPT vehicle): significantly lower | mRNA expression and protein level for VEGF-A, VEGFR2, and SP-B in lung ([2]; late-stage study, 90d, FPT AVR-48 vs FPT vehicle): no significant difference | IL-6 protein in lung tissue [2, 5]: appeared lower (not significant) | IL-10 protein concentration in lung tissue [2, 5]: appeared higher (not significant) | TNF-α protein in lung tissue [2, 5]: appeared lower (not significant) | radial alveolar count (RAC) ([3]; 10d, PT lambs, 3.0 mg/kg): significant increase | distal airspace wall thickness ([3]; 10d, PT lambs): significantly thinner | secondary septal volume density ([3]; 10d, PT lambs): significantly higher | radial alveolar count (RAC) ([3]; 90d, FPT lambs, 3.0 mg/kg): significant increase | distal airspace wall thickness ([3]; 90d, FPT lambs): thinner (but not statistically different) | secondary septal volume density ([3]; 90d, FPT lambs): higher in the AVR-48 lambs (but not statistically different) | development of terminal respiratory units (TRUs) ([3]; early-stage and late-stage studies, 3.0 mg/kg): significantly better development | activation via TRAM (TLR4 pathway): no activation | phospho-MyD88 (TLR4 pathway): increasing | phospho-TTRAP (TLR4 pathway): increasing | decrease in IL-1β [4]: 2-4 fold | decrease in IL-6 [4]: 2-4 fold | decrease in IL-8 [4]: 2-4 fold | decrease in IL-10 [4]: 2-4 fold | decrease in IL-12 [4]: 2-4 fold | decrease in TNF-α [4]: 2-4 fold | CD3+ T-cells (mice): stimulated | CD4+ T-cells (mice): stimulated | CD8+ T-cells (mice): stimulated | M1 macrophages (mice): increased | Mint (intermediate) macrophages (mice): increased | TNF-α (mice): increase
